Test results reported in the NIST ThermoML archive (doi:10.1021/je060271a).
Where “and” joins values, the source holds several entries; their conditions need not be identical. Equal entries are not always repeated.

Conditions: 303.16 K, Liquid, Vibrating tube method

CCCCCC(=O)OCC(COC(=O)CCCCC)(COC(=O)CCCCC)COC(=O)CCCCC [pentaerythritol tetrahexanoate]
Conditions | mass density
243.6 kPa | 988.4 kg/m3
243.8 kPa | 988.7 kg/m3
244.8 kPa | 988.5 kg/m3 and 988.6 kg/m3
245.2 kPa | 988.4 kg/m3 and 988.6 kg/m3
245.3 kPa | 988.5 kg/m3
245.5 kPa | 988.5 kg/m3
245.9 kPa | 988.5 kg/m3 and 988.6 kg/m3
246.2 kPa | 988.5 kg/m3
246.6 kPa | 988.5 kg/m3
246.7 kPa | 988.4 kg/m3
247.3 kPa | 988.6 kg/m3 and 988.5 kg/m3
247.4 kPa | 988.4 kg/m3
248.5 kPa | 988.5 kg/m3
248.8 kPa | 988.5 kg/m3
249.2 kPa | 988.4 kg/m3
249.3 kPa | 988.6 kg/m3
250.7 kPa | 988.5 kg/m3
251.1 kPa | 988.4 kg/m3
251.2 kPa | 988.6 kg/m3
251.4 kPa | 988.5 kg/m3
251.6 kPa | 988.5 kg/m3
251.9 kPa | 988.5 kg/m3
252.1 kPa | 988.5 kg/m3
252.3 kPa | 988.5 kg/m3
252.5 kPa | 988.6 kg/m3
252.6 kPa | 988.4 kg/m3
252.8 kPa | 988.6 kg/m3
253 kPa | 988.4 kg/m3
253.5 kPa | 988.5 kg/m3
253.7 kPa | 988.4 kg/m3
254 kPa | 988.5 kg/m3
254.2 kPa | 988.5 kg/m3
254.6 kPa | 988.4 kg/m3
254.7 kPa | 988.5 kg/m3
255.1 kPa | 988.6 kg/m3
255.2 kPa | 988.6 kg/m3
255.4 kPa | 988.5 kg/m3
255.6 kPa | 988.5 kg/m3
255.9 kPa | 988.5 kg/m3
256.3 kPa | 988.5 kg/m3
256.5 kPa | 988.5 kg/m3
256.6 kPa | 988.5 kg/m3
257 kPa | 988.6 kg/m3 and 988.5 kg/m3
257.3 kPa | 988.6 kg/m3
257.5 kPa | 988.5 kg/m3
257.8 kPa | 988.6 kg/m3 and 988.5 kg/m3
258 kPa | 988.5 kg/m3
258.4 kPa | 988.4 kg/m3
258.5 kPa | 988.5 kg/m3
258.7 kPa | 988.5 kg/m3
259.1 kPa | 988.7 kg/m3
259.4 kPa | 988.6 kg/m3 and 988.5 kg/m3
259.6 kPa | 988.6 kg/m3
259.8 kPa | 988.5 kg/m3
260.1 kPa | 988.5 kg/m3
260.3 kPa | 988.6 kg/m3
260.4 kPa | 988.4 kg/m3
260.8 kPa | 988.5 kg/m3 and 988.4 kg/m3
261.1 kPa | 988.5 kg/m3
261.3 kPa | 988.6 kg/m3
261.8 kPa | 988.5 kg/m3
262.5 kPa | 988.4 kg/m3 and 988.5 kg/m3
262.7 kPa | 988.5 kg/m3
263.1 kPa | 988.5 kg/m3
263.2 kPa | 988.6 kg/m3 and 988.5 kg/m3
263.7 kPa | 988.5 kg/m3
264.1 kPa | 988.5 kg/m3
264.3 kPa | 988.5 kg/m3
264.4 kPa | 988.6 kg/m3 and 988.5 kg/m3
265 kPa | 988.6 kg/m3
265.1 kPa | 988.5 kg/m3
265.3 kPa | 988.5 kg/m3
265.7 kPa | 988.5 kg/m3
266.2 kPa | 988.6 kg/m3
266.3 kPa | 988.5 kg/m3
266.4 kPa | 988.5 kg/m3 and 988.6 kg/m3
266.7 kPa | 988.5 kg/m3 and 988.6 kg/m3
266.9 kPa | 988.6 kg/m3
267.1 kPa | 988.6 kg/m3
267.4 kPa | 988.4 kg/m3
267.7 kPa | 988.6 kg/m3
267.9 kPa | 988.5 kg/m3
268.3 kPa | 988.5 kg/m3
268.6 kPa | 988.5 kg/m3 and 988.4 kg/m3
268.8 kPa | 988.5 kg/m3
269 kPa | 988.4 kg/m3
269.1 kPa | 988.5 kg/m3
270 kPa | 988.5 kg/m3
270.2 kPa | 988.5 kg/m3
270.7 kPa | 988.6 kg/m3
271 kPa | 988.6 kg/m3
271.2 kPa | 988.5 kg/m3
271.4 kPa | 988.6 kg/m3
271.6 kPa | 988.6 kg/m3
272.1 kPa | 988.6 kg/m3 and 988.5 kg/m3
272.4 kPa | 988.6 kg/m3
274.2 kPa | 988.6 kg/m3
274.7 kPa | 988.6 kg/m3 and 988.5 kg/m3
275 kPa | 988.5 kg/m3
275.2 kPa | 988.5 kg/m3
275.6 kPa | 988.5 kg/m3
275.7 kPa | 988.6 kg/m3
275.9 kPa | 988.5 kg/m3
276.1 kPa | 988.4 kg/m3
276.4 kPa | 988.6 kg/m3
276.8 kPa | 988.4 kg/m3 and 988.5 kg/m3
277.3 kPa | 988.5 kg/m3
277.5 kPa | 988.5 kg/m3
277.6 kPa | 988.5 kg/m3
278 kPa | 988.6 kg/m3
278.2 kPa | 988.5 kg/m3
278.3 kPa | 988.6 kg/m3
279 kPa | 988.4 kg/m3 and 988.5 kg/m3
279.2 kPa | 988.5 kg/m3
279.5 kPa | 988.6 kg/m3
279.9 kPa | 988.6 kg/m3
280.2 kPa | 988.5 kg/m3
280.6 kPa | 988.5 kg/m3
280.8 kPa | 988.6 kg/m3
280.9 kPa | 988.6 kg/m3
281.3 kPa | 988.5 kg/m3
281.8 kPa | 988.5 kg/m3
282 kPa | 988.6 kg/m3
282.3 kPa | 988.6 kg/m3
282.5 kPa | 988.6 kg/m3
282.7 kPa | 988.5 kg/m3
283.2 kPa | 988.5 kg/m3
283.5 kPa | 988.6 kg/m3
283.7 kPa | 988.5 kg/m3
283.9 kPa | 988.6 kg/m3
284.9 kPa | 988.6 kg/m3
285.3 kPa | 988.4 kg/m3
285.6 kPa | 988.6 kg/m3
286.1 kPa | 988.5 kg/m3 and 988.6 kg/m3
286.5 kPa | 988.6 kg/m3
287 kPa | 988.6 kg/m3
287.2 kPa | 988.6 kg/m3
287.5 kPa | 988.5 kg/m3
287.9 kPa | 988.5 kg/m3
288.6 kPa | 988.5 kg/m3
289.8 kPa | 988.5 kg/m3
290.7 kPa | 988.5 kg/m3
291 kPa | 988.6 kg/m3
291.5 kPa | 988.5 kg/m3
291.7 kPa | 988.6 kg/m3
